The experiment relates to B6C3F1 mice, ip Sarcoma M5076, median survival T/C. Briefly: NCI In Vivo Anticancer Drug Screen. Data for tumor model Sarcoma M5076 (intraperitoneal) in B6C3F1 mice. The settings on record: endpoint: median survival time, higher = longer survival. As for the experimental part:
The antitumor activity of compounds was measured in mice bearing transplantable tumors. Survival or tumor size were measured and the results are expressed as the measurement made in the treated group (T) divided by the measurement made in the vehicle treated control group (C). The tumor model used in this assay is Sarcoma M5076 (intraperitoneal) in B6C3F1 mice

The mark [1] stands for this setting: dose: 12.5 mg/kg/injection, schedule: Q04DX004 (ip), vehicle: saline with Tween-80.
The mark [2] stands for this setting: dose: 25.0 mg/kg/injection, schedule: Q04DX004 (ip), vehicle: saline with Tween-80.
The mark [3] stands for this setting: dose: 50.0 mg/kg/injection, schedule: Q04DX004 (ip), vehicle: saline with Tween-80.
The mark [4] stands for this setting: dose: 100.0 mg/kg/injection, schedule: Q04DX004 (ip), vehicle: saline with Tween-80.
[5] abbreviates: dose: 37.5 mg/kg/injection, schedule: Q04DX004 (ip), vehicle: saline with Tween-80.
The mark [6] stands for this setting: dose: 75.0 mg/kg/injection, schedule: Q04DX004 (ip), vehicle: saline with Tween-80.
[7] abbreviates: dose: 150.0 mg/kg/injection, schedule: Q04DX004 (ip), vehicle: saline with Tween-80.
Where [8] appears, read: dose: 50.0 mg/kg/injection, schedule: Q04DX004 (ip), vehicle: Klucel (hydroxypropylcellulose) (HPC).
The mark [9] stands for this setting: dose: 100.0 mg/kg/injection, schedule: Q04DX004 (ip), vehicle: Klucel (hydroxypropylcellulose) (HPC).
Setting [10] is: dose: 200.0 mg/kg/injection, schedule: Q04DX004 (ip), vehicle: Klucel (hydroxypropylcellulose) (HPC).
The mark [11] stands for this setting: dose: 400.0 mg/kg/injection, schedule: Q04DX004 (ip), vehicle: Klucel (hydroxypropylcellulose) (HPC).
The mark [12] stands for this setting: dose: 25.0 mg/kg/injection, schedule: Q04DX004 (ip), vehicle: Klucel (hydroxypropylcellulose) (HPC).

Where “and” joins values, the source holds several entries; their conditions need not be identical. Equal entries are not always repeated. Inconclusive results and toxic doses are left out.

`CCCCCCCC(=O)[O][Hg][CH2]C1COC([CH2][Hg][O]C(=O)CCCCCCC)CO1` (stereo not drawn): the T/C (dose: 6.25 mg/kg/injection, schedule: Q04DX004 (ip), vehicle: saline with Tween-80) is 95 % of control; the T/C under setting [1] is 86 % of control; the T/C under setting [2] was 86 % of control and 87 % of control; the T/C under setting [3] is 87 % of control and 90 % of control; the T/C under setting [4] is 87 % of control.
With `CN1c2ccccc2C(=O)N2C(=O)CCC21C` (stereo not drawn), the T/C is 100 % of control (dose: 18.75 mg/kg/injection, schedule: Q04DX004 (ip), vehicle: saline with Tween-80); 100 % of control under setting [5]; 102 % of control under setting [6]; 101 % of control under setting [7].
Turning to `[NH-]C(CCC(N)=O)C(=O)O.[NH-]C(CCC(N)=O)C(=O)O.[Zn+2]` (stereo not drawn), the T/C is 103 % of control under setting [1], 98 % of control under setting [2] and 96 % of control under setting [3].
Consider `O=c1ccn(C2CC3[O][Sn]([c]4ccccc4)([c]4ccccc4)[O]CC3O2)c(=O)[nH]1` (stereo not drawn), for which the T/C reads like this: (dose: 25.0 mg/kg/injection, schedule: Q04DX004 (ip), vehicle: distilled water + Tween-80) 104 % of control; (dose: 50.0 mg/kg/injection, schedule: Q04DX004 (ip), vehicle: distilled water + Tween-80) 102 % of control; (dose: 100.0 mg/kg/injection, schedule: Q04DX004 (ip), vehicle: distilled water + Tween-80) 101 % of control; (dose: 200.0 mg/kg/injection, schedule: Q04DX004 (ip), vehicle: distilled water + Tween-80) 103 % of control; (dose: 400.0 mg/kg/injection, schedule: Q04DX004 (ip), vehicle: distilled water + Tween-80) 102 % of control.
With `O=C1C=CC2OC(c3ccccc3)C(O)C2O1` (stereo not drawn), the T/C was 105 % of control (dose: 6.25 mg/kg/injection, schedule: Q04DX004 (ip), vehicle: DMSO); 107 % of control (dose: 12.5 mg/kg/injection, schedule: Q04DX004 (ip), vehicle: DMSO); 112 % of control (dose: 25.0 mg/kg/injection, schedule: Q04DX004 (ip), vehicle: DMSO); 107 % of control (dose: 50.0 mg/kg/injection, schedule: Q04DX004 (ip), vehicle: DMSO).
Regarding `OC(C1CO1)C(O)C1CO1` (stereo not drawn), the T/C is, setting by setting: (dose: 1.0 mg/kg/injection, schedule: Q04DX005 (ip), vehicle: saline) 123 % of control; (dose: 2.0 mg/kg/injection, schedule: Q04DX005 (ip), vehicle: saline) 169 % of control; (dose: 4.0 mg/kg/injection, schedule: Q04DX005 (ip), vehicle: saline) 287 % of control; (dose: 8.0 mg/kg/injection, schedule: Q04DX005 (ip), vehicle: saline) 319 % of control.
On to `CC(C)NCC(O)CC(c1ccccc1)c1ccccc1` (stereo not drawn), for which the T/C under setting [1] was 95 % of control, the T/C under setting [2] is 101 % of control, the T/C under setting [3] was 98 % of control and the T/C under setting [4] is 91 % of control.
With `CC(=O)C1C(=O)C(=O)N(c2ccccc2C)C1=O` (stereo not drawn), the T/C under setting [8] was 104 % of control, the T/C under setting [9] was 93 % of control, the T/C under setting [10] is 102 % of control and the T/C under setting [11] is 108 % of control.
On to `CCCCCCCCCCCCN1C(C)=CS/C1=C\C=C\c1scc(C)[n+]1CCCCCCCCCCCC`, for which the T/C is, setting by setting: (dose: 0.75 mg/kg/injection, schedule: Q04DX004 (ip), vehicle: saline with Tween-80) 119 % of control; (dose: 1.5 mg/kg/injection, schedule: Q04DX004 (ip), vehicle: saline with Tween-80) 116 % of control.
`O=c1[nH]cnc2c1nnn2C1OC(CO)C(O)C1O` (stereo not drawn): the T/C was 105 % of control (dose: 50.0 mg/kg/injection, schedule: Q04DX004 (ip), vehicle: saline); 97 % of control (dose: 50.0 mg/kg/injection, schedule: Q04DX004 (ip), vehicle: suspension in saline); 93 % of control (dose: 100.0 mg/kg/injection, schedule: Q04DX004 (ip), vehicle: saline); 94 % of control (dose: 100.0 mg/kg/injection, schedule: Q04DX004 (ip), vehicle: suspension in saline); 112 % of control (dose: 200.0 mg/kg/injection, schedule: Q04DX004 (ip), vehicle: saline); 98 % of control (dose: 200.0 mg/kg/injection, schedule: Q04DX004 (ip), vehicle: suspension in saline). For the same molecule, the T/C is, setting by setting: (dose: 400.0 mg/kg/injection, schedule: Q04DX004 (ip), vehicle: saline) 101 % of control; (dose: 400.0 mg/kg/injection, schedule: Q04DX004 (ip), vehicle: suspension in saline) 96 % of control; (dose: 800.0 mg/kg/injection, schedule: Q04DX004 (ip), vehicle: saline) 103 % of control; (dose: 800.0 mg/kg/injection, schedule: Q04DX004 (ip), vehicle: suspension in saline) 96 % of control.
In the case of `O=S(CCCl)CCCl`, the T/C is 102 % of control (dose: 6.25 mg/kg/injection, schedule: Q04DX004 (ip), vehicle: Klucel (hydroxypropylcellulose) (HPC)); 98 % of control (dose: 12.5 mg/kg/injection, schedule: Q04DX004 (ip), vehicle: Klucel (hydroxypropylcellulose) (HPC)); 98 % of control under setting [12]; 106 % of control under setting [8].
In the case of `CC1=CC(C)C(O)C(C)/C=C/C(O)C/C=C(/C)C(=O)CC(O)C(C)\C=C/C=C/C=C\C(=O)NC2=C(O)c3cc(C)c(O)c(c3C(=O)C2=O)C1=O` (stereo not drawn), the T/C by setting is: (dose: 1.25 mg/kg/injection, schedule: Q04DX004 (ip), vehicle: Klucel (hydroxypropylcellulose) (HPC)) 109 % of control; (dose: 2.5 mg/kg/injection, schedule: Q04DX004 (ip), vehicle: Klucel (hydroxypropylcellulose) (HPC)) 97 % of control; (dose: 5.0 mg/kg/injection, schedule: Q04DX004 (ip), vehicle: Klucel (hydroxypropylcellulose) (HPC)) 102 % of control; (dose: 10.0 mg/kg/injection, schedule: Q04DX004 (ip), vehicle: Klucel (hydroxypropylcellulose) (HPC)) 102 % of control; under setting [12], 98 % of control.
As to `COc1cc(C2CC(C)(O)Oc3cc4c(cc32)OCO4)cc(OC)c1OC` (stereo not drawn), under setting [3], the T/C was 115 % of control.
As to `CCn1c2ccc(N)cc2c2c3ncc4cccn4c3ccc21`, the T/C was 101 % of control under setting [5]; 94 % of control under setting [6]; 97 % of control under setting [7]; 89 % of control (dose: 300.0 mg/kg/injection, schedule: Q04DX004 (ip), vehicle: saline with Tween-80).
Take `COc1ccc(-c2c(N3CCOCC3)oc3cc(N4CCOCC4)c(O)cc23)cc1`: the T/C by setting is: under setting [3], 95 % of control; under setting [4], 104 % of control; (dose: 200.0 mg/kg/injection, schedule: Q04DX004 (ip), vehicle: saline with Tween-80) 98 % of control; (dose: 400.0 mg/kg/injection, schedule: Q04DX004 (ip), vehicle: saline with Tween-80) 95 % of control.
With `O=P1(N(CCCl)CCCl)NCCCO1` (stereo not drawn), the T/C is 201 % of control (dose: 80.0 mg/kg/injection, schedule: Q04DX003 (ip), vehicle: saline) and 261 % of control (dose: 160.0 mg/kg/injection, schedule: Q04DX003 (ip), vehicle: saline).
On to `CN1C(=O)C(=O)N(Cc2ccc(CN3C(=O)C(=O)N(C)C3=O)cc2)C1=O`, for which the T/C under setting [8] was 98 % of control, the T/C under setting [9] is 94 % of control, the T/C under setting [10] is 115 % of control and the T/C under setting [11] was 92 % of control.
Regarding `Cc1c(-c2ccc(C3CCCCC3)cc2)nc2ccc(F)cc2c1C(=O)O`, the T/C is 114 % of control and 121 % of control under setting [8]; 118 % of control and 122 % of control under setting [9]; 152 % of control (dose: 800.0 mg/kg/injection, schedule: Q04DX004 (ip), vehicle: Klucel (hydroxypropylcellulose) (HPC)).
Consider `COc1ccccc1NC(=O)C1C(=O)C(=O)N(c2ccccc2OC)C1=O` (stereo not drawn), for which the T/C under setting [8] was 105 % of control, the T/C under setting [9] is 97 % of control and the T/C under setting [10] is 96 % of control.
With `O=C1CN(CCN2CC(=O)N(CN3CCOCC3)C(=O)C2)CC(=O)N1CN1CCOCC1`, the T/C runs as follows: (dose: 50.0 mg/kg/injection, schedule: Q04DX004 (ip), vehicle: water) 97 % of control; (dose: 100.0 mg/kg/injection, schedule: Q04DX004 (ip), vehicle: water) 109 % of control.
In the case of `CC1(C)C(=O)NC(=O)c2ccccc21`, the T/C under setting [12] was 109 % of control.

For the origin of these results see PubChem BioAssay AID292 (DTP/NCI, 2004).
